According to article PMC5928890 (Theranostics, 2018):

Biological target: Aβ(1-42) (Homo sapiens, UniProt P05067)
Test: Aggregation inhibition by paper-based ECL assay with [Ru
Type: biochemical

Chain of Aβ(1-42) (P05067 672-713): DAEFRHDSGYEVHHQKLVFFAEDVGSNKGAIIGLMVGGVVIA

`Nc1c(/N=N/c2ccc(-c3ccc(/N=N/c4cc(S(=O)(=O)O)c5ccccc5c4N)cc3)cc2)cc(S(=O)(=O)O)c2ccccc12` [CR, Congo red] was tested, and the IC50 was 1070 nM.
